Laboratory results taken from patent publication US20060127400A1, “Activation of regulatory T cells by alpha-melanocyte stimulating hormone” (THE SCHEPENS EYE RESEARCH INSTITUTE, INC., priority 1999, published 2006).
No end group written: not given here.

What was measured:
[1] = tested on: CD4+ T cells; test: flow cytometry of intracellular IFN-γ and IL-4 in TCR-stimulated primed T cells; type: cell-based, mouse (BALB/c); conditions: α-MSH 30 pg/ml, anti-CD3, 24 h
Description: Flow Cytometry. For immunostaining and flow cytometry, T cells (2×10^6 cells) were obtained from 24 hour cultures of enriched primed T cells TCR-stimulated in the presence of α-MSH as described above. The cells were centrifuged and washed once in 400 μl of brefeldin/PBS buffer (10 mM PBS, 10 μg/ml brefeldin A). The cells were resuspended in 100 μl of PBS/brefeldin and 100 μl of 4% paraformaldehyde/PBS fixing buffer. The cells were incubate at room temperature for 20 minutes with gentle agitation and washed once with 200 μl of brefeldin/PBS, centrifuged, and resuspended in 50 μl of PBS/saponin (10 mM PBS, 1% BSA, 0.1% Na Azide, 0.5% Saponin) and incubated 10 minutes at room temperature. To the cell suspensions 2 μg of FITC-conjugated anti-cytokine antibody (anti-IL-4 or -IFN-γ) or FITC-isotype control was added. […] The stained cells were analyzed by a Coulter Epics flow cytometer calibrated for two color fluorescence, and presented were the fluorescence of blast (proliferating) cells in two dimensions.
To further examine α-MSH suppression of IFN-γ production by T cells, the frequency of IFN-γ producing T cells activated in the presence of α-MSH was assayed by flow cytometry. […] The stained cells were analyzed by two-color flow cytometry gating on the blastogenic, proliferating T cells. […] Percent of analyzed cell population is given for each quadrant in the lower right-hand of each histogram. […]

[2] = tested on: CD3ζ; test: tyrosine phosphorylation of CD3ζ, immunoprecipitation and anti-phosphotyrosine immunoblot; type: cell-based, mouse
Description: Immunoprecipitation and Immunoblotting. Enriched primed T cells (2×10^6 cells) in a 24 well Corning plate were TCR-stimulated with 2C11 in the presence of α-MSH (30 pg/ml) under serum-free conditions for 15 minutes. The T cells were collected, placed in a microcentrifuge tube and washed once with 10 mM Tris buffered saline (TBS) and lysed for 30 minutes in 100 μl of ice cold lysate buffer (10 mM TBS, 1% NP-40, 0.5% sodium deoxycholate, 0.1% SDS, 100 μg/ml phenylmethylsulfonyl fluoride (PMSF), 60 μg/ml Aprotinin, and 1 mM sodium orthovanadate). The cells were passed through a 21 gauge needles three times, and an additional 2 μl of 10 mg/ml PMSF was added. The tubes were incubated for an additional 30 minutes on ice and were centrifuged for 20 minutes, 4° C., 13,000×g. The supernatant was collected and used as total cellular lysate. The protein concentration was measured, and added to equal amounts of protein lysate were 20 μg/ml anti-CD3ζ antibody, or anti-CD3ε antibody plus rabbit anti-hamster IgG antibody and incubated overnight at 4° C. The rabbit anti-hamster IgG was needed for the CD3ε immunoprecipitation, since much of the CD3ε was bound by 2C11 a hamster anti-mouse […] and hamster antibody weakly binds protein-G. Protein-G sepharose beads (Pharmacia, Piscataway, N.J.) were added to the antibody containing lysates and incubated for 1 hour at room temperature with end over end agitation. The beads were centrifuged and washed 4 times with 10 mM TBS containing 0.5% sodium deoxycholate. After the final wash the beads were resuspended in 20 μl of distilled water and 20 μl non-reducing SDS Tris-glycine sample buffer (Novex, San Diego, Calif.), boiled for 5 minutes and applied into two wells (20 μl) of a 8-16% Tris-glycine polyacrylamide gel (Novex).
Following electrophoresis in a Novex Xcell II minicell and blot module, the proteins were transferred from the gel onto a nitrocellulose membrane (Novex) by electroblotting. The membrane was blocked with 1% BSA in 0.01 M TBS for 1 hour room temperature. The blocked membrane was placed in a sealable bag containing 5 ml of alkaline-phosphatase conjugated anti-phosphotyrosine antibody PY20 diluted 1/2000 in 1% BSA-TBS buffer. The membrane was incubated overnight at room temperature. The PY20 blotted membrane was washed 3 times with wash buffer containing 1% BSA-TBS and 0.05% Tween-20 and incubated with alkaline phosphatase substrate NBT-BCIP (Sigma Chemical) until bands appeared. The membrane was washed with distilled water. In parallel, some lanes on the membrane were immunoblotted with anti-CD3ζ antibody and alkaline phosphatase conjugated anti-mouse IgG (Sigma Chemical) to detect the relative mobility of CD3ζ protein. Membranes were digitally photographed and analyzed using NIH Image software to integrate the band intensities relative to band area minus background. […]
The enriched primed T cells (2×10^6 cells) were incubated with anti-CD3 in the presence of α-MSH (30 pg/ml) for 15 minutes. […] The immunoprecipitates were analyzed by non-reducing SDS-PAGE (on a 8-16% gradient gel), followed by transfer to a nitrocellulose filter and immunoblotting with anti-phosphotyrosine antibody: (1) Unstimulated primed T cells treated with α-MSH; (2) Unstimulated primed T cells incubated in media alone; (3) Enriched primed T cells TCR-stimulated in the absence of α-MSH; (4) Enriched primed T cells TCR-stimulated in the presence of α-MSH. […]

Substance: α-melanocyte stimulating hormone (SYSMEHFRWGKPV; not fully specified; ends and bridges not checked; UniProt P01189 138-150, looked up) [α-MSH, synthetic α-MSH (Peninsula Laboratories); thirteen-amino acid neuropeptide derived from POMC]
- frequency of IFN-γ positive cells, intracellular IFN-γ staining in CD4+ T cells [1]: substantially shifted toward lower levels
- intracellular IL-4 staining in CD4+ T cells [1]: shift to higher levels
- increase in CD3ζ tyrosine phosphorylation ([2]; TCR-stimulated primed T cells, versus stimulated in the absence of α-MSH): 6.7 fold
- relative intensity of phosphotyrosine band, CD3ζ ([2]; TCR-stimulated primed T cells, α-MSH 30 pg/ml, 15 minutes (lane 4; without α-MSH 10)): 67
- overall level of tyrosine phosphorylation of CD3ζ ([2]; TCR-stimulated primed T cells, α-MSH 30 pg/ml, 15 minutes, Example III (FIG. 18A)): no significant change
- stimulation of tyrosine phosphorylation of CD3ζ dimers ([2]; unstimulated primed T cells): 4 fold
- relative intensity of phosphotyrosine band, CD3ζ ([2]; unstimulated primed T cells, α-MSH 30 pg/ml, 15 minutes (lane 1; media alone 1)): 4
